Test results: article PMC10906927, “Structure of the PCNA unloader Elg1-RFC” (Science Advances, 2024)

What was measured:
Elg1-RFC [1] = tested on: T1, Elg1-RFC; test: cryo-EM structure, […] Å; assay type: binding, Saccharomyces cerevisiae
T1 construct: heteropentamer; 3xFLAG-Elg1 and Rfc5 (pLANT-2RIL) with Rfc2, Rfc3, Rfc4 (pET11a) co-expressed in E. coli BLR(DE3) (results text says expressed in yeast); anti-FLAG and MonoS; no tag removal told

Elg1-RFC–PCNA = tested on: T2, Elg1-RFC–PCNA; test: cryo-EM structure, […] Å (closed PCNA) and […] Å (cracked PCNA); assay type: binding, Saccharomyces cerevisiae; conditions: glutaraldehyde cross-linked
T2 construct: with Proliferating cell nuclear antigen
T2 sequence (P40348 whole entry, one chain of several, further chain): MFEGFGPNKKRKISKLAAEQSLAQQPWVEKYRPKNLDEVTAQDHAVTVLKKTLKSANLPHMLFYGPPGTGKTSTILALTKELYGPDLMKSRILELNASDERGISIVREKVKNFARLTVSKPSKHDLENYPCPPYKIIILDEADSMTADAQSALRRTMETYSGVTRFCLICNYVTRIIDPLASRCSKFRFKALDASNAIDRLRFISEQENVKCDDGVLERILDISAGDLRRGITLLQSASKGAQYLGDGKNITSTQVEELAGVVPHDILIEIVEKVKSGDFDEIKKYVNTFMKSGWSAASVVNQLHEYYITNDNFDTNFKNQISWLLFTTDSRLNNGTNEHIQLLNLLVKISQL
T2 sequence (P38251 whole entry, one chain of several, further chain): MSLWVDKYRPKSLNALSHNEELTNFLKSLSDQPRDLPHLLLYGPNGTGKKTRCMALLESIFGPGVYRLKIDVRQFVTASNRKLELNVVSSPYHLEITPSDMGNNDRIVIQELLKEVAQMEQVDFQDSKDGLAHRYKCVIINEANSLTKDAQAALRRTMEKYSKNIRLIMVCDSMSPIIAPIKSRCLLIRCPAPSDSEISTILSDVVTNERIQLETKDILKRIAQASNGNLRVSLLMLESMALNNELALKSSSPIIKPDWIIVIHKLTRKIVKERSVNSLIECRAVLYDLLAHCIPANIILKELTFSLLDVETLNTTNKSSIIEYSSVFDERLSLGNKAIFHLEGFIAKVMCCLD

Elg1-RFC [2] = tested on: T1, Elg1-RFC; test: […]-PCNA unloading from nicked plasmid, gel filtration; assay type: biochemical, Saccharomyces cerevisiae; conditions: 2 mM AMP-PNP, 56 nM Elg1-RFC, 0.69 nM 32P-PCNA-DNA, 8 mM MgCl2, 100 mM NaCl, pH 7.5, 30 °C, 2 min; supports unloading without hydrolysis
[3] = target: T3, Elg1 (enhanced levels of genome instability 1), subunit of Elg1-RFC (S. cerevisiae, UniProt Q12050 1-791); test: cryo-EM structure; Elg1-RFC 2.9 uM, PCNA clamp 1.3 uM, 5'-tailed DNA 28.7 uM, ATPgammaS 0.5 mM, Mg-acetate 6.7 mM, ice-water bath, then cross-linked with glutaraldehyde and quenched with Tris; no DNA seen in the maps; closed and cracked PCNA ring; conditions: both partners purified
T3 construct: Elg1 (enhanced levels of genome instability 1), S. cerevisiae; Stood in the assay as a subunit of the Elg1-RFC pentamer; also called 3xFLAG-Elg1; Elg1 subunit; source: E. coli BLR(DE3), co-expressed with Rfc2-5, purified as Elg1-RFC (anti-FLAG resin, MonoS)
T3 sequence (looked up): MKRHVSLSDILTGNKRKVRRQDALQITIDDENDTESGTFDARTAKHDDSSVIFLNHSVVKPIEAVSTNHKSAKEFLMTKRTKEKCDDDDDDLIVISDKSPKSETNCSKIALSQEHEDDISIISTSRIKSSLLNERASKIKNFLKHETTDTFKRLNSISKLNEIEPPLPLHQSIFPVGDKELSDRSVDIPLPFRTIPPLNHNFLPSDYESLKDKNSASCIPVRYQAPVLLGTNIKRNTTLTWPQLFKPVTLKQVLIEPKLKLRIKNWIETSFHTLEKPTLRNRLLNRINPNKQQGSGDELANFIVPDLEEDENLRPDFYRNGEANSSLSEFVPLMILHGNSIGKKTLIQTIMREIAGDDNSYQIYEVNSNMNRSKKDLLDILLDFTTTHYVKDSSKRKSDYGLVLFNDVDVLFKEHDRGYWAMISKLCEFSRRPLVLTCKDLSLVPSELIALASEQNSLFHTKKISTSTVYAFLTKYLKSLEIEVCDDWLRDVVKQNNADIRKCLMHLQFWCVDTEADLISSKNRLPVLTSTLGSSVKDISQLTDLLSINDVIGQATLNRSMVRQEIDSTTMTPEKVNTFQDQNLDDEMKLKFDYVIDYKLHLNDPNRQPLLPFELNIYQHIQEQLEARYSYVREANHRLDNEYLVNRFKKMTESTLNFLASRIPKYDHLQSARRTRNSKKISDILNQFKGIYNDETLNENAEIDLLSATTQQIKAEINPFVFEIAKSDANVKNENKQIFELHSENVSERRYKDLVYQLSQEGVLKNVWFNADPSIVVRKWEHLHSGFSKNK

[4] = target: T4, Rfc3, subunit of Elg1-RFC (S. cerevisiae, UniProt P38629 1-340); test: as above; conditions: both partners purified
T4 construct: Rfc3, S. cerevisiae replication factor C subunit 3; Stood in the assay as a subunit of the Elg1-RFC pentamer; source: E. coli BLR(DE3), co-expressed with Elg1 and Rfc2, 4, 5, purified as Elg1-RFC (anti-FLAG resin, MonoS)
T4 sequence: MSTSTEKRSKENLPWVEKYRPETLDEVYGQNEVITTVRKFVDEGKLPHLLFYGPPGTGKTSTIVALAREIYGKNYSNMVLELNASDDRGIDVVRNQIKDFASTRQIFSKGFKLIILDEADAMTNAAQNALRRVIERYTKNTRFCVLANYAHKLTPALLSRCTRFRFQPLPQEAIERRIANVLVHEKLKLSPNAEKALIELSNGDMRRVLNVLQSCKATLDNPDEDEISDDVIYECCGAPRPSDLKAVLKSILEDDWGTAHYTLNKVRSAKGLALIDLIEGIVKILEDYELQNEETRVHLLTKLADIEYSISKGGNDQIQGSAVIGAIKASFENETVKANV

[5] = target: T5, Rfc4, subunit of Elg1-RFC (S. cerevisiae, UniProt P40339 1-323); test: as above; conditions: both partners purified
T5 construct: Rfc4, S. cerevisiae replication factor C subunit 4; Stood in the assay as a subunit of the Elg1-RFC pentamer; source: E. coli BLR(DE3), co-expressed with Elg1 and Rfc2, 3, 5, purified as Elg1-RFC (anti-FLAG resin, MonoS)
T5 sequence: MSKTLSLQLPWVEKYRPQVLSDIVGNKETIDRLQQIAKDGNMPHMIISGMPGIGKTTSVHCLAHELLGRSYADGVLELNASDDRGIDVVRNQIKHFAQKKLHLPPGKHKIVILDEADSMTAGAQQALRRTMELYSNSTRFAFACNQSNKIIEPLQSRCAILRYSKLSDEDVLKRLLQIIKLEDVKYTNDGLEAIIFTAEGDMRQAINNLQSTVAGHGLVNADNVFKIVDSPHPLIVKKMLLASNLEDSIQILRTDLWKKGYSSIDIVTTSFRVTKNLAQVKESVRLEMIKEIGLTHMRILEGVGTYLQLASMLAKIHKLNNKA

[6] = target: the molecule itself; test: as above
[7] = site in Rfc5, ADP not listed among added components

T1 sequence (P40348 whole entry, one chain of several, further chain): as the sequence (P40348 whole entry, one chain of several, further chain) above
T1 sequence (P38251 whole entry, one chain of several, further chain): as the sequence (P38251 whole entry, one chain of several, further chain) above

Molecule: Nc1ncnc2c1ncn2[C@@H]1O[C@H](COP(=O)(O)OP(=O)(O)O)[C@@H](O)[C@H]1O [ADP]
- cryo-EM structure, 3.2 Å (Elg1-RFC [1]; [7]): four ATPγS in Rfc2, Rfc3, Rfc4, and Elg1, and one ADP in Rfc5
- cryo-EM structure, 3.3 Å (closed PCNA) and 3.7 Å (cracked PCNA) (Elg1-RFC–PCNA; [7]): In all three Elg1-RFC structures, we found five bound nucleotides

Molecule: Nc1ncnc2c1ncn2[C@@H]1O[C@H](COP(=O)(O)OP(=O)(O)NP(=O)(O)O)[C@@H](O)[C@H]1O [AMP-PNP]
- 32P-PCNA unloading from nicked plasmid, gel filtration (Elg1-RFC [2]): Elg1-RFC can unload PCNA from DNA with non-hydrolyzable AMP-PNP

Molecule: Nc1ncnc2c1ncn2[C@@H]1O[C@H](COP(=O)(O)OP(=O)(O)OP(O)(O)=S)[C@@H](O)[C@H]1O [ATPγS]
- cryo-EM structure, 3.2 Å (Elg1-RFC [1]; 0.5 mM ATPγS final (1 mM in results text), 6.7 mM Mg-acetate, sites in Rfc2, Rfc3, Rfc4 and Elg1, Elg1 site without Mg density): four ATPγS in Rfc2, Rfc3, Rfc4, and Elg1, and one ADP in Rfc5
- cryo-EM structure, 3.3 Å (closed PCNA) and 3.7 Å (cracked PCNA) (Elg1-RFC–PCNA; 0.5 mM ATPγS final (1 mM in results text), 6.7 mM Mg-acetate, sites in Rfc2, Rfc3, Rfc4 and Elg1): In all three Elg1-RFC structures, we found five bound nucleotides: four ATPγS in Rfc2, Rfc3

B1: proliferating cell nuclear antigen (PCNA), S. cerevisiae (natural protein)
chain: MLEAKFEEASLFKRIIDGFKDCVQLVNFQCKEDGIIAQAVDDSRVLLVSLEIGVEAFQEYRCDHPVTLGMDLTSLSKILRCGNNTDTLTLIADNTPDSIILLFEDTKKDRIAEYSLKLMDIDADFLKIEELQYDSTLSLPSSEFSKIVRDLSQLSDSINIMITKETIKFVADGDIGSGSVIIKPFVDMEHPETSIKLEMDQPVDLTFGAKYLLDIIKGSSLSDRVGIRLSSEAPALFQFDLKSGFLQFFLAPKFNDEE
notes: PCNA, S. cerevisiae sliding clamp; Homotrimeric ring; In the unloading assays the kinase site was labelled with 32P; also called PCNA clamp; PCNA ring
- binding result [3]: binds
- binding result [4]: binds
- binding result [5]: binds
- stoichiometry N [6]: 3
